Experimental findings from patent publication EP4523682A1, “PROCESS TO COMPLEX OLEANOLIC ACID WITH CYCLODEXTRINS AND PRODUCTS OBTAINED THEREOF” (FUNDACION UNIVERSITARIA SAN ANTONIO (UCAM), priority 2023, dated 2025) are described below.

Experiment [1] relates to c-Jun active phosphorylated form (p-c-Jun). In words: Cell-front migration assay, p-c-Jun immunostaining. The experiment is classed as cell-based, Mink. The settings on record: 12.5/3.12 µM/mM OA/HP-β-CD, 5 µM OA/DMSO.
Protocol: Mv1Lu cells are grown until they reach confluence on round glass-coverslips in 10% FBS-EMEM medium. At this time, cells are washed and a 24h serum-starvation period is set by replacing the medium with FBS-free EMEM. After this, the epithelium is scratched using a razor blade, which produces an artificial wound with enough space to allow cells to migrate. […] After the selected times of incubation, glass-coverslips are fixed with 4% formaldehyde (Applichem GmbH, Darmstadt, Germany) in PBS (Biowest, Nuaillé, France) for 10 minutes and washed twice with PBS. After this, cells are permeabilized with 0,3% Triton X-100 (Sigma-Aldrich, St Louis, MO, USA) in PBS for 10 minutes. […] In order to quantify phospho-c-Jun levels in immunofluorescence pictures, images are analyzed and quantified by Image J software. […] Within each sector, the quantified signal of each nucleus is used as a replicate to obtain p-c-Jun intensity data in each of the conditions performed. For a better understanding, the relation of number of p-c-Jun positive nuclei between total nuclei number is calculated. For this purpose, a basal p-c-Jun intensity mean is calculated considering the control condition of the assays, set as a threshold. […]
Data of intensity values obtained from p-c-Jun nuclei quantifications in immunofluorescence pictures are analyzed by using two statistic tests: Two-way ANOVA test and One-way ANOVA test.
In experiment [2] the test system is focal adhesions (FAs) revealed by Paxillin. As to the kind of experiment: Cell-front migration assay, focal adhesions by paxillin immunostaining. The settings on record: 6 and 12 hours; 12.5/3.12 µM/mM OA/HP-β-CD; 5 µM OA/DMSO; versus basal and vehicle control. The experiment is classed as cell-based, Mink.
Protocol: Mv1Lu cells are grown until they reach confluence on round glass-coverslips in 10% FBS-EMEM medium. At this time, cells are washed and a 24h serum-starvation period is set by replacing the medium with FBS-free EMEM. After this, the epithelium is scratched using a razor blade, which produces an artificial wound with enough space to allow cells to migrate. […] After the selected times of incubation, glass-coverslips are fixed with 4% formaldehyde (Applichem GmbH, Darmstadt, Germany) in PBS (Biowest, Nuaillé, France) for 10 minutes and washed twice with PBS. After this, cells are permeabilized with 0,3% Triton X-100 (Sigma-Aldrich, St Louis, MO, USA) in PBS for 10 minutes. For immunostaining, a blocking is performed for 30 minutes at room temperature in PBS solution with 10% FBS, 5% skim milk (Beckton Dickinson, Franklin Lakes, NJ, USA), 0,3% bovine serum albumin (BSA, Sigma-Aldrich, St Louis, MO, USA) and 0,1% Triton X-100. Then, cells are incubated 1 hour at room temperature with anti-paxillin or anti-phospho-c-Jun antibodies, diluted in blocking solution without skim milk. […] Briefly, focal adhesions are quantified from paxillin stained acquired pictures. […] Then, the number of FAs are calculated in each filopodia by using the previously mentioned macros. […] In parallel, the size of each FA is measured using the macros mentioned above. Finally, FA average size is calculated for each treatment.
Another experiment deals with phospho-c-Jun (Ser 63). In words: Western blot. The experiment is classed as cell-based, Human. To be noted: 21/5.25 µM/mM OA/HP-β-CD; 10 µM OA/DMSO. How it is done: (§1) Mv1Lu or MDA-MB-231 cells are seeded and allowed to reach 60% confluence in 10 cm diameter plates. At this time, culture medium containing 10% FBS is replaced by an FBS-free medium, incubating the cells for a 24-hours period. Serum-deprived cells are treated with either OA, OA/HP-β-CD, DMSO, HP-β-CD or 10 ng/ml EGF. After time incubations, cells are harvested, washed twice with ice-cold PBS and lysed with 20 mM TRIS pH 7.5, 150 mM NaCl, 1 mM EDTA, 1.2 mM MgCl2, 0.5%, Nonidet p-40, 1mM DTT, 25 mM NaF and 25 mM β-glycerophosphate supplemented with phosphatase inhibitors (I and II) and protease inhibitors (all from Sigma-Aldrich, St Louis, MO, USA). Total protein amount of all extracts is measured and normalized by Bradford assay (Sigma-Aldrich, St Louis, MO, USA). The extracts are analyzed by SDS-PAGE followed by Western blot (WB) using the indicated antibodies (see Antibodies section). […] For protein quantification, Western pictures in 8-bit format are processed in imaged software. Subsequently, in all Western blot pictures, a lane is stablished for each of the samples. In each lane, the band is selected according to the specific size (kDa) of the protein of interest. For each total protein and their phosphorylated version, each band's intensity peak is plotted, and next, the area under the plot is measured by using "Wand (tracing) tool" of imaged to obtain the intensity value. In order to normalize, obtained intensity values are referred to obtained intensity values of either the unphosphorylated form of the protein (total) or a loading control protein such as β-actin, only if the unphosphorylated form is undetectable (non-available antibody for detecting the unphosphorylated form). […]

Experiment [3] relates to phospho-JNK1/2 (Thr 183/Tyr 185). As to the kind of experiment: Western blot. The experiment is classed as cell-based, Human. To be noted: 21/5.25 µM/mM OA/HP-β-CD; 10 µM OA/DMSO. Here is the method:
as §1
Background: A western blot detects proteins with antibodies after separation by electrophoresis.

The test system of a further experiment is c-Jun. As to the kind of experiment: Western blot. The experiment is classed as cell-based, Human. The settings on record: 21/5.25 µM/mM OA/HP-β-CD; 10 µM OA/DMSO. How it is done: as §1

For Oleanolic acid [OA/DMSO], the “p-c-Jun in cells at the edge of the wound (immunostaining)” value in experiment [1] (6 and 12 hours) was “promote the up-regulation of this active form of c-Jun”. For the same substance, in experiment [1], the “p-c-Jun fluorescence in the nuclei (quantified)” value is “promoted the expression and activation of this factor”. Further, in experiment [2], the “number of adhesion foci (FAs density)” value is on record as “greater number of adhesion foci” and the “size of adhesion foci (FA average size)” value is recorded as “small foci”. The p-c-Jun entry in the experiment with phospho-c-Jun (Ser 63) is reported as “stronger stimulation of p-c-Jun at time 1 hour”. Further, the p-JNK1/2 entry in experiment [3] is on record as “stimulated this kinase at time 1 hours”. The “total c-Jun levels” value in the experiment on c-Jun is reported as “stimulated c-Jun overexpression at the early time of 1 h”.
